Data: patent US10758534B2 (Vertex Pharmaceuticals Incorporated, priority 2014, dated 2020)

Target: T1, F508del (Homo sapiens, UniProt P13569, DEL508-508)
T1 construct: expressed in transfected cells
Assay: Protocol 2: FRET membrane potential optical assay (VIPR), identification of correction compounds
Assay type: cell-based
Conditions: Table 3; compounds of Table 1 as modulators of CFTR activity; protocol not stated
Procedure, shortened: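 Single-addition HTS format: F508del-expressing NIH3T3 cells pre-incubated 16 hrs at 37° C. ± compound, with 27° C. culture as positive control. Channel activation by forskolin 10 μM and genistein 20 μM upon switch to gluconate bath, pH 7.4; read-out is FRET-based depolarization signal.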

T1 sequence (P13569 with tags, fused parts or gaps DEL508-508): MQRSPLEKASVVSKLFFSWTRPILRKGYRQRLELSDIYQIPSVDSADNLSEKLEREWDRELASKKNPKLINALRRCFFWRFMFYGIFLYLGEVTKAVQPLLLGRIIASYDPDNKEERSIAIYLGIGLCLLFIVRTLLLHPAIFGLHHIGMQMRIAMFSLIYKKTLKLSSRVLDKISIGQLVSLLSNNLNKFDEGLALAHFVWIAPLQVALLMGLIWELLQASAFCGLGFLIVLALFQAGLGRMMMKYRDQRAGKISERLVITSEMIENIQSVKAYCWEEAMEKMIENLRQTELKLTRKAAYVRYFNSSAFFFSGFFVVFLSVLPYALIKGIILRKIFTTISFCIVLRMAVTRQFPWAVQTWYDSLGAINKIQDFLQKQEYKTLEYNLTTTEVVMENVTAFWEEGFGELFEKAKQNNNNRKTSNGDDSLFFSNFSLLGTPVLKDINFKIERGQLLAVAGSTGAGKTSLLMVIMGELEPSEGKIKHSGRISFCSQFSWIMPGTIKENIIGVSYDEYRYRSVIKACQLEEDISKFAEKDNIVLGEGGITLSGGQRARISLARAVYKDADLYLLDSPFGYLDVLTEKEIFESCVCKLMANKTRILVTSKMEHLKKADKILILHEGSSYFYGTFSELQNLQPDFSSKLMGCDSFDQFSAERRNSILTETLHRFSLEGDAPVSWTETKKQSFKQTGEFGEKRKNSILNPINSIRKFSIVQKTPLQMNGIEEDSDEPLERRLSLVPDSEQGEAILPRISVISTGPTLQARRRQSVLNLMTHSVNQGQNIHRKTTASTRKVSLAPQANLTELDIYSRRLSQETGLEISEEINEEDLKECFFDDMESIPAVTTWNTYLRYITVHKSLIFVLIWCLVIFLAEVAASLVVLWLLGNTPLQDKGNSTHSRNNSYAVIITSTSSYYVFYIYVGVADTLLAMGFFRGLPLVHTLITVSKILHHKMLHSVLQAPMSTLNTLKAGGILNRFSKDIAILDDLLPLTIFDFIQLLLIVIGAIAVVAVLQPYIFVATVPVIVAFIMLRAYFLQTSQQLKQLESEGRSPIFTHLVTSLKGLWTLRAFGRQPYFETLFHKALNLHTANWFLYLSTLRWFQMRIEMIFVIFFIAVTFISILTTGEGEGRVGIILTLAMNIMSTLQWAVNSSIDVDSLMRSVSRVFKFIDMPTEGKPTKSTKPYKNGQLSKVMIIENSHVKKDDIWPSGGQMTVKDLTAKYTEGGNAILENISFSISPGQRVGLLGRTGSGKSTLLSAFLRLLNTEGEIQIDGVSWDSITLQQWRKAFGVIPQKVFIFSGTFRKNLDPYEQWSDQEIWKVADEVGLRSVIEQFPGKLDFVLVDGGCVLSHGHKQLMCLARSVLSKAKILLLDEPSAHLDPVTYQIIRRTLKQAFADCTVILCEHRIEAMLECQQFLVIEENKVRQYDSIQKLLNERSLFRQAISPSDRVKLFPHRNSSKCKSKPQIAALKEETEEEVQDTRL

| EC30 | Structure (SMILES) |
| --- | --- |
| ++ (“++” means between 3 uM and 10 uM) | CC(C)Oc1cncc(-c2ccc(C(=O)NS(=O)(=O)c3cccc(N)n3)c(N3[C@H](C)CC[C@@H]3C)n2)c1 [Compound 400, N-[(6-amino-2-pyridyl)sulfonyl]-2-[(2S,5R)-2,5-dimethylpyrrolidin-1-yl]-6-(5-isopropoxy-3-pyridyl)pyridine-3-carboxamide] |
| +++ (“+++” means <3 uM) | Cc1cc(C)c(Oc2nc(C(C)(C)C)ccc2C(=O)NS(=O)(=O)c2cn[nH]c2)c(C)c1 [Compound 401, 6-tert-butyl-N-(1H-pyrazol-4-ylsulfonyl)-2-(2,4,6-trimethylphenoxy)pyridine-3-carboxamide] |
| +++ (“+++” means <3 uM) | CC1CN(c2nc(-c3ccnc(OC(C)C)c3)ccc2C(=O)NS(=O)(=O)c2cccc(N)n2)C(C)(C)C1 (centres unmarked) [Compound 402, N-[(6-amino-2-pyridyl)sulfonyl]-6-(2-isopropoxy-4-pyridyl)-2-(2,2,4-trimethylpyrrolidin-1-yl)pyridine-3-carboxamide] |
| ++ (“++” means between 3 uM and 10 uM) | CC(C)Oc1ccc(-c2ccc(C(=O)NS(=O)(=O)c3ccc[nH]c3=O)c(N3C[C@H](C)CC3(C)C)n2)cn1 [Compound 403, 6-(6-isopropoxy-3-pyridyl)-N-[(2-oxo-1H-pyridin-3-yl)sulfonyl]-2-[(4R)-2,2,4-trimethylpyrrolidin-1-yl]pyridine-3-carboxamide] |
| +++ (“+++” means <3 uM) | Cc1cc(C)c(Cn2c(C(=O)NS(=O)(=O)c3cccc(N)n3)cc3cc(C(C)C)ccc32)c(C)c1 [Compound 404, N-[(6-amino-2-pyridyl)sulfonyl]-5-isopropyl-1-[(2,4,6-trimethylphenyl)methyl]indole-2-carboxamide] |
| +++ (“+++” means <3 uM) | COc1cc(F)ccc1-c1ccc(C(=O)NS(=O)(=O)c2cc[nH]n2)c(Oc2c(C)cc(C)cc2C)n1 [Compound 405, 6-(4-fluoro-2-methoxy-phenyl)-N-(1H-pyrazol-3-ylsulfonyl)-2-(2,4,6-trimethylphenoxy)pyridine-3-carboxamide] |
| +++ (“+++” means <3 uM) | COc1ccc2c(c1)CN(Cc1c(C)cc(C)cc1C)C2(C)C(=O)NS(=O)(=O)c1cccc(N)n1 (centres unmarked) [Compound 406, N-[(6-amino-2-pyridyl)sulfonyl]-5-methoxy-1-methyl-2-[(2,4,6-trimethylphenyl)methyl]isoindoline-1-carboxamide] |
| ++ (“++” means between 3 uM and 10 uM) | Cc1ccc(-c2nc(C(C)(C)C)ccc2C(=O)NS(=O)(=O)c2ccccn2)cc1 [Compound 407, 6-tert-butyl-2-(p-tolyl)-N-(2-pyridylsulfonyl)pyridine-3-carboxamide] |
| + (“+” means greater than 10 uM) | CCOc1ccc(-c2ccc(C(=O)NS(=O)(=O)c3cccc(N)n3)c(-c3ccc(C)cc3)n2)cc1 [Compound 409, N-[(6-amino-2-pyridyl)sulfonyl]-6-(4-ethoxyphenyl)-2-(p-tolyl)pyridine-3-carboxamide] |
| +++ (“+++” means <3 uM) | CCOc1cccc2c1CN(Cc1c(C)cc(C)cc1C)C2(C)C(=O)NS(=O)(=O)c1ccc[nH]c1=O (centres unmarked) [Compound 410, 4-ethoxy-1-methyl-N-[(2-oxo-1H-pyridin-3-yl)sulfonyl]-2-[(2,4,6-trimethylphenyl)methyl]isoindoline-1-carboxamide] |
| +++ (“+++” means <3 uM) | CC(C)(C)c1ccc(C(=O)NS(=O)(=O)c2cccc(N)n2)c(C2CCCCC2)n1 [Compound 411, N-[(6-amino-2-pyridyl)sulfonyl]-6-tert-butyl-2-cyclohexyl-pyridine-3-carboxamide] |
| +++ (“+++” means <3 uM) | CC(C)CN(C)c1ccc(-c2ccc(C(=O)NS(=O)(=O)c3cccc(N)n3)c(N3CC(C)CC3(C)C)n2)cn1 (centres unmarked) [Compound 412, N-[(6-amino-2-pyridyl)sulfonyl]-6-[6-[isobutyl(methyl)amino]-3-pyridyl]-2-(2,2,4-trimethylpyrrolidin-1-yl)pyridine-3-carboxamide] |
| +++ (“+++” means <3 uM) | COc1cccc(-c2ccc(C(=O)NS(=O)(=O)c3cccc(N)n3)c(Oc3c(C)cc(C)cc3C)n2)c1 [Compound 413, N-[(6-amino-2-pyridyl)sulfonyl]-6-(3-methoxyphenyl)-2-(2,4,6-trimethylphenoxy)pyridine-3-carboxamide] |
| +++ (“+++” means <3 uM) | CC(C)c1ccc(-c2ccc(C(=O)NS(=O)(=O)c3ccn[nH]3)c(N3[C@H](C)CC[C@@H]3C)n2)cc1 [Compound 414, 2-[(2S,5R)-2,5-dimethylpyrrolidin-1-yl]-6-(4-isopropylphenyl)-N-(1H-pyrazol-5-ylsulfonyl)pyridine-3-carboxamide] |
| ++ (“++” means between 3 uM and 10 uM) | CC(C)(C)c1ccc(C(=O)NS(=O)(=O)c2cccc(N)n2)c(-c2ccc(F)cc2)n1 [Compound 417, N-[(6-amino-2-pyridyl)sulfonyl]-6-tert-butyl-2-(4-fluorophenyl)pyridine-3-carboxamide] |
| +++ (“+++” means <3 uM) | COc1ncccc1S(=O)(=O)NC(=O)c1cc2c(nc1Oc1c(C)cc(C)cc1C)C(C)(C)CCC2 [Compound 423, N-[(2-methoxy-3-pyridyl)sulfonyl]-8,8-dimethyl-2-(2,4,6-trimethylphenoxy)-6,7-dihydro-5H-quinoline-3-carboxamide] |
| +++ (“+++” means <3 uM) | COc1ncccc1S(=O)(=O)NC(=O)C1c2cccc(-c3ccccc3)c2CN1Cc1c(C)cc(C)cc1C (centres unmarked) [Compound 427, N-[(2-methoxy-3-pyridyl)sulfonyl]-4-phenyl-2-[(2,4,6-trimethylphenyl)methyl]isoindoline-1-carboxamide] |

| Structure (SMILES) | EC30 |
| --- | --- |
| CC(C)COc1cc(F)cc(-c2ccc(C(=O)NS(=O)(=O)c3cccc(N)n3)c(N3CCC[C@@H](C)C3)n2)c1 [Compound 408, N-[(6-amino-2-pyridyl)sulfonyl]-6-(3-fluoro-5-isobutoxy-phenyl)-2-[(3R)-3-methyl-1-piperidyl]pyridine-3-carboxamide] | +++ (“+++” means <3 uM) |
| CC(C)COc1cc(F)cc(-c2ccc(C(=O)NS(=O)(=O)c3ccn[nH]3)c(N3[C@H](C)CC[C@@H]3C)n2)c1 [Compound 415, 2-[(2S,5R)-2,5-dimethylpyrrolidin-1-yl]-6-(3-fluoro-5-isobutoxy-phenyl)-N-(1H-pyrazol-5-ylsulfonyl)pyridine-3-carboxamide] | +++ (“+++” means <3 uM) |
| CC(C)COc1cc(F)cc(-c2ccc(C(=O)NS(=O)(=O)c3cccc(N)n3)c(OC3C(C)CCC3C)n2)c1 (centres unmarked) [Compound 416, N-[(6-amino-2-pyridyl)sulfonyl]-2-(2,5-dimethylcyclopentoxy)-6-(3-fluoro-5-isobutoxy-phenyl)pyridine-3-carboxamide] | +++ (“+++” means <3 uM) |
| CC(C)COc1cc(F)cc(-c2ccc(C(=O)NS(=O)(=O)c3cccc(N)n3)c(N3CCCCCC3)n2)c1 [Compound 418, N-[(6-amino-2-pyridyl)sulfonyl]-2-(azepan-1-yl)-6-(3-fluoro-5-isobutoxy-phenyl)pyridine-3-carboxamide] | +++ (“+++” means <3 uM) |
| COCC1CCCN(c2nc(-c3cc(F)cc(OCC(C)C)c3)ccc2C(=O)NS(=O)(=O)c2cccc(N)n2)C1 (centres unmarked) [Compound 419, N-[(6-amino-2-pyridyl)sulfonyl]-6-(3-fluoro-5-isobutoxy-phenyl)-2-[3-(methoxymethyl)-1-piperidyl]pyridine-3-carboxamide] | +++ (“+++” means <3 uM) |
| CC(C)COc1cc(F)cc(-c2ccc(C(=O)NS(=O)(=O)c3cccc(N)n3)c(N3C4CCC3CC4)n2)c1 [Compound 420, N-[(6-amino-2-pyridyl)sulfonyl]-2-(7-azabicyclo[2.2.1]heptan-7-yl)-6-(3-fluoro-5-isobutoxy-phenyl)pyridine-3-carboxamide] | +++ (“+++” means <3 uM) |
| CC(C)COc1cc(F)cc(-c2ccc(C(=O)NS(=O)(=O)c3cccc(N)n3)c(N3CCC[C@@H]3C)n2)c1 [Compound 421, N-[(6-amino-2-pyridyl)sulfonyl]-6-(3-fluoro-5-isobutoxy-phenyl)-2-[(2S)-2-methylpyrrolidin-1-yl]pyridine-3-carboxamide] | +++ (“+++” means <3 uM) |
| CC(C)COc1cc(F)cc(-c2ccc(C(=O)NS(=O)(=O)c3ccc[nH]c3=O)c(N3CCC(C)CC3)n2)c1 [Compound 422, 6-(3-fluoro-5-isobutoxy-phenyl)-2-(4-methyl-1-piperidyl)-N-[(2-oxo-1H-pyridin-3-yl)sulfonyl]pyridine-3-carboxamide] | +++ (“+++” means <3 uM) |
| CC(C)COc1cc(F)cc(-c2ccc(C(=O)NS(=O)(=O)c3cccc(N)n3)c(N3CCCC34CCOC4)n2)c1 (centres unmarked) [Compound 424, N-[(6-amino-2-pyridyl)sulfonyl]-6-(3-fluoro-5-isobutoxy-phenyl)-2-(8-oxa-4-azaspiro[4.4]nonan-4-yl)pyridine-3-carboxamide] | +++ (“+++” means <3 uM) |
| CC(C)COc1cc(F)cc(-c2ccc(C(=O)NS(=O)(=O)c3cccc(N)n3)c(N3CCCCC3C)n2)c1 (centres unmarked) [Compound 425, N-[(6-amino-2-pyridyl)sulfonyl]-6-(3-fluoro-5-isobutoxy-phenyl)-2-(2-methyl-1-piperidyl)pyridine-3-carboxamide] | +++ (“+++” means <3 uM) |
| CC(C)COc1cc(F)cc(-c2ccc(C(=O)NS(=O)(=O)c3ccn[nH]3)c(N3CCC(C(F)(F)F)CC3)n2)c1 [Compound 426, 6-(3-fluoro-5-isobutoxy-phenyl)-N-(1H-pyrazol-5-ylsulfonyl)-2-[14-(trifluoromethyl)-1-piperidyl]pyridine-3-carboxamide] | +++ (“+++” means <3 uM) |
| C[C@@H]1CC[C@H](C)N1c1nc(-c2ccc(OC3CCC3)nc2)ccc1C(=O)NS(=O)(=O)c1cccc(N)n1 [Compound 428, N-[(6-amino-2-pyridyl)sulfonyl]-6-[6-(cyclobutoxy)-3-pyridyl]-2-[(2S,5R)-2,5-dimethylpyrrolidin-1-yl]pyridine-3-carboxamide] | +++ (“+++” means <3 uM) |
